Data published in ChEMBL document CHEMBL3137667, “[Drug-induced liver injury; fourteenth updated edition of the bibliographic database of liver injuries and related drugs]” (Gastroenterol Clin Biol, 2004).

Columns and labels:
[1] = human
[2] = human, serum
[3] = human; remark: listed apart in the source
[4] = human, serum; remark: listed apart in the source
[5] = Highest frequency of moderate liver toxicity observed during clinical trials, expressed as a percentage. [column '% BIOL' in source]; conditions: human
[6] = human; remark: listed apart in the source
[7] = human; remark: listed apart in the source
[8] = human; remark: listed apart in the source
[9] = human; remark: listed apart in the source
[10] = Highest frequency of acute liver toxicity observed during clinical trials, expressed as a percentage. [column '% AIGUE' in source]; conditions: human
[11] = human, serum, 4383 h
[12] = human; remark: listed apart in the source
[13] = human; remark: listed apart in the source
[14] = human; remark: listed apart in the source
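For Hepatotoxicity (association with vascular disease) in this document: count of indexed literature references reporting vascular liver injury in humans, e.g. peliosis hepatitis, hepatic veno-occlusive disease or Budd-Chiari syndrome.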
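For Hepatotoxicity (benign tumour) in this document: value is a count of indexed literature references citing a benign tumour confirmed by histopathology.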
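For Hepatotoxicity (choleostasis) in this document: human cholestatic liver injury, shown by histopathology or by peak ALT or AST elevation over alkaline phosphatase ratio below 2, value counts indexed literature reports.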
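For Hepatotoxicity (chronic liver disease) in this document: chronic liver injury confirmed by histopathology or persistently raised serum aminotransferase activity beyond 6 months, value given as the count of indexed literature references.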
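For Hepatotoxicity (cirrhosis) in this document: value is a count of indexed literature references reporting cirrhosis confirmed by histopathology.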
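For Hepatotoxicity (cytolytic) in this document: human cytolytic liver injury, shown by histopathology or by a ratio above 5 of peak ALT or AST elevation to alkaline phosphatase elevation, value counts indexed references.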
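For Hepatotoxicity (granulomatous hepatitis) in this document: value is a count of indexed literature references reporting granulomatous liver disease confirmed by histopathology.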
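For Hepatotoxicity (malignant tumour) in this document: malignant tumour confirmed by histopathology, value gives the count of indexed literature references reporting it.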
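For Hepatotoxicity (severe hepatitis) in this document: human clinical data: severe hepatitis, meaning potentially life-threatening liver failure or clinically observed cases, the value counts how many indexed literature references report it.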
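For Hepatotoxicity (steatosis) in this document: steatosis confirmed by histopathology, value is the count of indexed references.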

Molecule	Hepatotoxicity (association with vascular disease) [1]	Hepatotoxicity (moderate) [2]	Hepatotoxicity (cytolytic) [3]	Hepatotoxicity (acute) [4]	Hepatotoxicity (moderate) [5]	Hepatotoxicity (malignant tumour) [6]	Hepatotoxicity (steatosis) [7]	Hepatotoxicity (severe hepatitis) [8]	Hepatotoxicity (choleostasis) [9]	Hepatotoxicity (acute) [10]	Hepatotoxicity (chronic liver disease) [11]	Hepatotoxicity (granulomatous hepatitis) [12]	Hepatotoxicity (benign tumour) [13]	Hepatotoxicity (cirrhosis) [14]	Hepatotoxicity (moderate) ([5]; Liver)	Hepatotoxicity (severe hepatitis) ([8]; Liver)	Hepatotoxicity (acute) ([10]; Liver)
CN1CCc2cccc3c2[C@H]1Cc1ccc(O)c(O)c1-3 [APOMORPHINE]	0	1	0	0	0%	0	0	0	0	0%	0	0	0	0	–	–	–
CNn1cc(C(=O)O)c(=O)c2cc(F)c(N3CCN(C)CC3)cc21 [AMIFLOXACIN]	0	1	1	1	–	0	0	–	0	–	0	0	0	0	5%	0	1.7%
O=C(O)CN1C(=O)c2cccc3cccc(c23)C1=O [ALRESTATIN]	0	2	0	0	11.1%	0	0	0	0	0%	0	0	0	0	–	–	–
C#C[C@]1(O)CC[C@H]2[C@@H]3CCC4=CCCC[C@@H]4[C@H]3CC[C@@]21C [LYNESTRENOL]	0	0	0	3	0%	0	0	0	3	0%	0	0	0	0	–	–	–
C=C(OC)C(=O)Nc1cc(OC)c(OC)cc1C(=O)O[C@H]1C[C@H](O[C@@H]2C(=O)C(NC(=O)OC)=C3/C(=C\CSSSC)[C@]2(O)C#C/C=C\C#C[C@@H]3O[C@@H]2O[C@H](C)[C@@H](NO[C@H]3C[C@H](O)[C@H](SC)[C@@H](C)O3)[C@H](O)[C@H]2O[C@H]2C[C@H](OC)[C@@H](NC(C)C)CO2)O[C@@H](C)[C@H]1O [ESPERAMICIN A1]	0	1	0	0	10.7%	0	0	0	0	0%	0	0	0	0	–	–	–
C[C@]12C=CC(=O)C=C1CC[C@@H]1[C@@H]2CC[C@@]2(C)[C@H]1CC[C@]2(C)O (stereo in doubt; form 2) [METHANDROSTENOLONE]	–	–	–	1	–	1	–	–	1	–	–	–	0	–	–	–	–
COc1cccc2c1C(=O)c1c(O)c3c(c(O)c1C2=O)C[C@@](O)(C(=O)CO)C[C@@H]3O[C@H]1C[C@H](N)[C@@H](O)[C@H](C)O1 [EPIRUBICIN]	0	3	0	0	6.4%	0	0	0	0	–	0	0	0	0	–	–	–
CARBETIMER	0	2	0	0	–	0	0	0	0	0%	0	0	0	0	–	–	–
CCn1cc(C(=O)O)c(=O)c2cc(F)c(N3CCN(C)CC3)cc21 [PEFLOXACIN]	–	5	0	0	–	0	0	–	0	–	0	0	0	0	16.7%	0	0%
